Article PMC5423775, “Structure of a AAA+ unfoldase in the process of unfolding substrate” (eLife, 2017)

Columns and labels:
[1] = molecular target: T1, ΔN-VAT (Thermoplasma acidophilum, UniProt O05209); test: cryo-EM structure, […] Å; assay type: binding; settings: 5 mM ATPγS, 50 mM HEPES pH 7.5, 100 mM NaCl; all twelve NBD1 and NBD2 nucleotide sites; six-fold symmetric stacked-ring state
T1 construct: N-terminal regulatory domain removed (Methods: 181 residues deleted; b5 says first 182), NBD1 + NBD2; N-terminal His6 tag with TEV site, pProEx vector; homohexamer

[2] = molecular target: ΔN-VAT (Thermoplasma acidophilum VAT with the regulatory N-terminal domain removed) (Thermoplasma acidophilum) (UniProt O05209); test: cryo-EM structure; purified ΔN-VAT at ~20 mg/mL, 50 mM HEPES pH 7.5, 100 mM NaCl, 5 mM ATPγS, 0.05% IGEPAL CA-630; six-fold symmetric stacked-ring class (~85% of particle images), C6 symmetry applied, 3.9 Å

T1 sequence (O05209 182-745, stated change not applied): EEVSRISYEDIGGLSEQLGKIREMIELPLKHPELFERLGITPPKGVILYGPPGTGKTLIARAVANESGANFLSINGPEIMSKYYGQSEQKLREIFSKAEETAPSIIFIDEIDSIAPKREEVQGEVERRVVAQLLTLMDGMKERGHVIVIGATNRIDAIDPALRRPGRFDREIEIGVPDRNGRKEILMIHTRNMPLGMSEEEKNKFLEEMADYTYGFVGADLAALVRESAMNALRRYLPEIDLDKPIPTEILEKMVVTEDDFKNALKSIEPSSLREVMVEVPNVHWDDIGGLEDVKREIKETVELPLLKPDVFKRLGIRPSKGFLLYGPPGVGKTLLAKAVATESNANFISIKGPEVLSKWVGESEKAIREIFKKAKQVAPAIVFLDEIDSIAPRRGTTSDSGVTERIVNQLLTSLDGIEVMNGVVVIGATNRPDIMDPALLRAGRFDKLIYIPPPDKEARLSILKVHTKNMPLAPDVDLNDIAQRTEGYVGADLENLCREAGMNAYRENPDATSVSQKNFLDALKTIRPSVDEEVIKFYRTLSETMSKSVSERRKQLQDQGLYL

Compound	cryo-EM structure, 3.9 Å [1]	stoichiometry N [2]
Nc1ncnc2c1ncn2[C@@H]1O[C@H](COP(=O)(O)OP(=O)(O)OP(O)(O)=S)[C@@H](O)[C@H]1O [ATPγS]	Density corresponding to ATPγS is visible in all twelve catalytic sites.	
ΔN-VAT (Thermoplasma acidophilum VAT with the regulatory N-terminal domain removed) (from UniProt O05209 182-745) (enzyme)		6
